Literature values, collected in patent US20190289805A1, “CULTURING METHOD FOR CULTURED LEGUMINOUS ROOTS HAVING INCREASED COUMESTROL CONTENT” (Amorepacific Corporation, priority 2016, published 2019).

Tested on: mouse uterus
Conditions: oral administration

With `O=c1oc2cc(O)ccc2c2oc3cc(O)ccc3c12` [coumestrol] as the compound, how does the estrogen effect (mature mice) read?
The estrogen effect was “has no estrogen effect”.

And the “estrogen effect (change in weight of uterus)” value (young female mice)?
The value was “exhibits an effective estrogen effect”.
